From patent publication US7135468B2, “Antibacterial compounds” (Abbott Laboratories, priority 2004, dated 2006)

Biological target: bacterial protein synthesis (S30 Streptococcus pneumoniae extract)
Test: Translation assay, firefly luciferase reporter system with S30 Streptococcus pneumoniae extract
Type: biochemical, Streptococcus pneumoniae ATCC 46919
Conditions: cell-free S30 extract from quinolone-susceptible S. pneumoniae ATCC 46919, luciferase mRNA; read-out: IC50, concentration causing 50% inhibition of bacterial protein synthesis
Method: Bacterial protein synthesis inhibitory activity of representative compounds of this invention having formula (I) and the commercially-available antibacterials in TABLE 2 was determined by translation assays using the firefly luciferase reporter system described by Murray et al., (2001), “Staphylococcus aureus Cell Extract Transcription-Translation Assay: Firefly Luciferase Reporter System for Evaluating Protein Translation Inhibitors,” Antimicrob. Agents Chemother. 45(6): 1900–1904, but replacing the Staphylococcus aureus S30 extract described therein with S30 Streptococcus pneumoniae extract from quinolone-succeptable Streptococcus pneumoniae ATCC 46919, and replacing plasmid coding for the luciferase gene with mRNA (encoding produced by in an in vitro environment transcription from the plasmid pAS10rbs3) which encoded the luciferase gene with an upstream Streptococcus pneumoniae promoter and Shine-Dalgarno site.

CC(=O)NC[C@H]1CN(c2ccc(N3CCOCC3)c(F)c2)C(=O)O1 [Linezolid]
IC50: ~3 µM
